Measurements: patent publication US4198506A, “2-Carboxyalkyl-2,3-dihydro-6-mercapto-s-triazolo[4,3-b]-pyridazin-3-ones” (Bristol-Myers Company, priority 1979, dated 1980)
Values after ≈ are worked out from the molar mass of the structure shown. Values joined by “and” are separate entries in the source; they are usually repeats but may differ in a detail not shown here. Equal entries are not always repeated. Where two headings read alike, the source gives them in different places.

What was measured:
[1] = test system: S. aureus (sensitive); experiment: In vitro activity (geometric mean MIC, serial dilution); format: cell-based; conditions: Staphylococcus aureus, read-out: Geometric Mean MIC
[2] = test system: S. aureus penicillinase+); experiment: as above; format: cell-based; conditions: Staphylococcus aureus; 13 strains; Mueller-Hinton agar, inoculum 10^4 dilution; MIC cutoff 200 mcg./ml.; read-out: Geometric Mean MIC
[3] = test system: S. aureus (Methicillin-R); experiment: as above; format: cell-based; conditions: Staphylococcus aureus; 15 strains; Mueller-Hinton agar, inoculum 10^4 dilution; MIC cutoff 200 mcg./ml.
[4] = test system: S. pyogenes; experiment: as above; format: cell-based; conditions: Streptococcus pyogenes; 10 strains; Mueller-Hinton agar, inoculum 10^4 dilution; MIC cutoff 200 mcg./ml.
[5] = test system: D. pneumoniae; experiment: as above; format: cell-based; conditions: Streptococcus pneumoniae; 9 strains; Mueller-Hinton agar, inoculum 10^4 dilution; MIC cutoff 200 mcg./ml.
[6] = test system: E. coli (sensitive); experiment: as above; format: cell-based; conditions: Escherichia coli, read-out: Geometric Mean MIC
[7] = test system: E. coli (Penicillinase +); experiment: as above; format: cell-based; conditions: Escherichia coli, read-out: Geometric Mean MIC
[8] = test system: Enterobacter (sensitive); experiment: as above; format: cell-based; conditions: 3 strains, Mueller-Hinton agar, inoculum 10^4 dilution, MIC cutoff 200 mcg./ml., read-out: Geometric Mean MIC
[9] = test system: Enterobacter (Cephalosporinase +); experiment: as above; format: cell-based; conditions: 7 strains, Mueller-Hinton agar, inoculum 10^4 dilution, MIC cutoff 200 mcg./ml.
[10] = test system: Proteus (indole-); experiment: as above; format: cell-based; conditions: read-out: Geometric Mean MIC
[11] = test system: Proteus (indole +); experiment: as above; format: cell-based; conditions: read-out: Geometric Mean MIC
[12] = test system: Proteus (indole +, cephalosporinase +); experiment: as above; format: cell-based; conditions: read-out: Geometric Mean MIC
[13] = test system: Providencia sp.; experiment: as above; format: cell-based; conditions: 5 strains, Mueller-Hinton agar, inoculum 10^4 dilution, MIC cutoff 200 mcg./ml., read-out: Geometric Mean MIC
[14] = test system: Klebsiella sp.; experiment: as above; format: cell-based; conditions: 12 strains, Mueller-Hinton agar, inoculum 10^4 dilution, MIC cutoff 200 mcg./ml., read-out: Geometric Mean MIC
[15] = test system: S. marcescens; experiment: as above; format: cell-based; conditions: Serratia marcescens, read-out: Geometric Mean MIC
[16] = test system: E. coli Juhl; experiment: In vivo activity (Mice, sc); conditions: several determinations listed; for ED50: Escherichia coli, read-out: PD50
From the text: (§1) |In vivo Activity of BB-[…] and Related Compounds (Mice, sc) | (PD50 (mgm./kg.)

[17] = test system: S. aureus Smith; experiment: In vivo activity (Mice, sc); conditions: Staphylococcus aureus, several determinations listed, read-out: PD50
From the text: as §1

[18] = test system: E. coli; experiment: In vitro antibacterial activity (Steers' agar dilution MIC); format: cell-based; conditions: Escherichia coli
From the text: (§2) In vitro Antibacterial Activity of BB-S493 Compared with
(§3) BB-S479 and Cefamandole (Determined by Steers' Agar Dilu-
(§4) tion Method on Mueller-Hinton Agar Plate)
(§5) In vitro antibacterial activity of BB-S 525 compared with
(§6) BB-S 479 and cefamandole (determined by Steers' agar dilution
(§7) method on Mueller-Hinton agar plate)

[19] = test system: Kl. pneumoniae; experiment: as above; format: cell-based; conditions: Klebsiella pneumoniae, table 4 (BB-S 525)
From the text: as §2, §3, §4, §5, §6, §7

[20] = test system: S. aureus; experiment: as above; format: cell-based; conditions: Staphylococcus aureus, table 4 (BB-S 525)
From the text: as §2, §3, §4, §5, §6, §7

[21] = test system: Sal. typhosa; experiment: as above; format: cell-based; conditions: table 4 (BB-S 525); Sal. typhosa
From the text: as §2, §3, §4, §5, §6, §7

[22] = test system: Shig. flexneri; experiment: as above; format: cell-based; conditions: Shigella flexneri; table 4 (BB-S 525); Shig. flexneri; read-out: MIC
From the text: as §2, §3, §4, §5, §6, §7

[23] = test system: Shig. sonnei; experiment: as above; format: cell-based; conditions: Shigella sonnei, table 4 (BB-S 525); Shig. sonnei
From the text: as §2, §3, §4, §5, §6, §7

[24] = test system: St. faecalis; experiment: as above; format: cell-based; conditions: Enterococcus faecalis, table 4 (BB-S 525); St. faecalis; read-out: MIC
[25] = test system: Pr. vulgaris; experiment: as above; format: cell-based; conditions: Proteus vulgaris, table 4 (BB-S 525), Pr. vulgaris, read-out: MIC
[26] = test system: Pr. mirabilis; experiment: as above; format: cell-based; conditions: Proteus mirabilis, table 4 (BB-S 525), Pr. mirabilis, read-out: MIC
[27] = test system: Pr. morganii; experiment: as above; format: cell-based; conditions: Morganella morganii, table 4 (BB-S 525), Pr. morganii, read-out: MIC
[28] = test system: Pr. rettgeri; experiment: as above; format: cell-based; conditions: Providencia rettgeri, table 4 (BB-S 525); Pr. rettgeri
[29] = test system: Ps. aeruginosa; experiment: as above; format: cell-based; conditions: table 4 (BB-S 525), Ps. aeruginosa
[30] = test system: Shig. dysenteriae; experiment: as above; format: cell-based; conditions: Shigella dysenteriae, table 4 (BB-S 525); Shig. dysenteriae
[31] = test system: Serr. marcescens; experiment: as above; format: cell-based; conditions: Serratia marcescens, table 4 (BB-S 525); Serr. marcescens; read-out: MIC
[32] = test system: Enterob. cloacae; experiment: as above; format: cell-based; conditions: table 4 (BB-S 525); Enterob. cloacae; read-out: MIC
[33] = test system: Sal. enteritidis; experiment: as above; format: cell-based; conditions: Salmonella enterica, table 4 (BB-S 525), Sal. enteritidis
[34] = test system: B. anthracis; experiment: microbe, parasite or virus in culture; format: cell-based; conditions: Bacillus anthracis, table 4 (BB-S 525); B. anthracis

## CNCc1cc(O)ccc1CC(=O)N[C@@H]1C(=O)N2C(C(=O)O)=C(CSc3ccc4nn(CC(=O)O)c(=O)n4n3)CS[C@H]12 [BB-S478, 7-(2-N-Methylaminomethyl-4-hydroxyphenylacetamido)-3-(2-N-carboxymethyl-2,3-dihydro-s-triazolo[4,5-b]pyridazin-3-on-6-ylthiomethyl)-3-cephem-4-carboxylic Acid]
[1]
  MIC: 0.4 µg/mL (≈ 0.65 µM)
[2]
  MIC: 1 µg/mL (≈ 1.62 µM)
[3]
  MIC: 50 µg/mL (≈ 81.2 µM)
[4]
  MIC: 0.04 µg/mL (≈ 0.065 µM)
[5]
  MIC: 0.03 µg/mL (≈ 0.0487 µM)
[6]; 13 strains, Mueller-Hinton agar, inoculum 10^4 dilution, MIC cutoff 200 mcg./ml.
  MIC: 0.2 µg/mL (≈ 0.325 µM)
[7]
  MIC: 10 µg/mL (≈ 16.2 µM)
[8]
  MIC: 0.8 µg/mL (≈ 1.3 µM)
[9]
  MIC: 2.6 µg/mL (≈ 4.22 µM)
[10]
  MIC: 0.4 µg/mL (≈ 0.65 µM)
[11]
  MIC: 0.3 µg/mL (≈ 0.487 µM)
[12]
  MIC: 7.3 µg/mL (≈ 11.9 µM)
[13]
  MIC: 4.8 µg/mL (≈ 7.8 µM)
[14]
  MIC: 0.6 µg/mL (≈ 0.975 µM)
[15]
  MIC: 40 µg/mL (≈ 65 µM)
[16]
  ED50: 0.08 mg/kg
[17]
  ED50: 0.08 mg/kg

## CNCc1ccccc1CC(=O)N[C@@H]1C(=O)N2C(C(=O)O)=C(CSc3ccc4nn(CCC(=O)O)c(=O)n4n3)CS[C@H]12 [BB-S 525, 7-[o-(N-Methylaminomethyl)phenylacetamido]-3-[2-(2-carboxyethyl)-2,3-dihydro-s-triazolo[4,3-b]pyridazin-3-on-6-ylthiomethyl]-3-cephem-4-carboxylic acid]
[18]; ATCC8739, table 4 (BB-S 525), E. coli ATCC 8739
  MIC: 6.3 µg/mL (≈ 10.3 µM)
[18]; table 4 (BB-S 525), E. coli BX-1373, read-out: MIC
  MIC: 0.4 µg/mL (≈ 0.652 µM)
[18]; table 4 (BB-S 525), E. coli Juhl, read-out: MIC
  MIC: 0.4 µg/mL (≈ 0.652 µM)
[18]; table 4 (BB-S 525), E. coli NIHJ, read-out: MIC
  MIC: 0.2 µg/mL (≈ 0.326 µM)
[18]; table 4 (BB-S 525), E. coli, strain not given, 1st line, read-out: MIC
  MIC: 0.2 µg/mL (≈ 0.326 µM)
[18]; table 4 (BB-S 525), E. coli, strain not given, 2nd line, read-out: MIC
  MIC: 0.2 µg/mL (≈ 0.326 µM)
[18]; table 4 (BB-S 525), E. coli, strain not given, 3rd line, read-out: MIC
  MIC: 6.3 µg/mL (≈ 10.3 µM)
[19]; Kl. pneumoniae, 1st line
  MIC: 1.6 µg/mL (≈ 2.61 µM)
[19]; Kl. pneumoniae, 2nd line
  MIC: 0.2 µg/mL (≈ 0.326 µM)
[19]; Kl. pneumoniae, 3rd line
  MIC: 0.2 µg/mL (≈ 0.326 µM)
[19]; Kl. pnuemoniae, 4th line
  MIC: 0.2 µg/mL (≈ 0.326 µM)
[20]; S. aureus (strain not given)
  MIC: 0.2 µg/mL (≈ 0.326 µM)
[20]; S. aureus BX-1633
  MIC: 0.8 µg/mL (≈ 1.3 µM)
[20]; S. aureus Smith
  MIC: 0.4 µg/mL (≈ 0.652 µM)
[21]
  MIC: 0.2 µg/mL (≈ 0.326 µM)
[22]
  MIC: 12.5 µg/mL (≈ 20.4 µM)
[23]
  MIC: 0.1 µg/mL (≈ 0.163 µM)
[24]
  MIC: > 100 µg/mL
[25]; 1st line
  MIC: 0.2 µg/mL (≈ 0.326 µM)
[25]; 2nd line
  MIC: 3.1 µg/mL (≈ 5.05 µM)
[26]; 1st line
  MIC: 0.4 µg/mL (≈ 0.652 µM)
[26]; 2nd line
  MIC: 0.2 µg/mL (≈ 0.326 µM)
[27]; 1st line
  MIC: > 100 µg/mL
[27]; 2nd line
  MIC: 0.2 µg/mL (≈ 0.326 µM)
[28]
  MIC: 0.8 µg/mL (≈ 1.3 µM)
[29]; Pseudomonas aeruginosa, 1st line, read-out: MIC
  MIC: > 100 µg/mL
[29]; 2nd line
  MIC: > 100 µg/mL
[30]
  MIC: 0.1 µg/mL (≈ 0.163 µM)
[31]
  MIC: 25 µg/mL (≈ 40.7 µM)
[32]
  MIC: 3.1 µg/mL (≈ 5.05 µM)
[33]
  MIC: 0.2 µg/mL (≈ 0.326 µM)
[34]
  MIC: 0.2 µg/mL (≈ 0.326 µM)

## NCc1ccccc1CC(=O)N[C@@H]1C(=O)N2C(C(=O)O)=C(CSc3nnnn3CC(=O)O)CS[C@H]12 [BL-S786, reference compound]
[1]; 4 strains, Mueller-Hinton agar, inoculum 10^4 dilution, MIC cutoff 200 mcg./ml.
  MIC: 1.3 µg/mL (≈ 2.5 µM)
[2]
  MIC: 3 µg/mL (≈ 5.77 µM)
[3]
  MIC: 48 µg/mL (≈ 92.4 µM)
[4]
  MIC: 0.2 µg/mL (≈ 0.385 µM)
[5]
  MIC: 0.08 µg/mL (≈ 0.154 µM)
[6]
  MIC: 0.4 µg/mL (≈ 0.77 µM)
[7]; 7 strains, Mueller-Hinton agar, inoculum 10^4 dilution, MIC cutoff 200 mcg./ml.
  MIC: 9.3 µg/mL (≈ 17.9 µM)
[8]
  MIC: 1.3 µg/mL (≈ 2.5 µM)
[9]
  MIC: 7.7 µg/mL (≈ 14.8 µM)
[10]
  MIC: 0.9 µg/mL (≈ 1.73 µM)
[11]
  MIC: 0.7 µg/mL (≈ 1.35 µM)
[12]; 5 strains, Mueller-Hinton agar, inoculum 10^4 dilution, MIC cutoff 200 mcg./ml.
  MIC: 29 µg/mL (≈ 55.8 µM)
[13]
  MIC: 1.4 µg/mL (≈ 2.69 µM)
[14]
  MIC: 0.8 µg/mL (≈ 1.54 µM)
[15]; 16 strains, Mueller-Hinton agar, inoculum 10^4 dilution, MIC cutoff 200 mcg./ml.
  MIC: 180 µg/mL (≈ 346 µM)
[16]
  ED50: 0.43 mg/kg
  PD50: 0.55 mgm./kg. and 0.46 mgm./kg. and 0.39 mgm./kg.
